In ChEMBL document CHEMBL1201862, “PubChem BioAssay data set” (2004):
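Test compounds were applied to cells in 96-well plates for 48 hours at 5 doses. At the GI50, growth is halved.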 Calls of active or inactive are those of the source. Cut-off read from the data, not from the text of the source: active = GI50 up to about 1.1 µM and inactive = higher.

Tests used:
Assay in all cases: NCI-60 cell line screen, 48 h
786-0 = tested on: 786-0
A549 = tested on: A549
ACHN = tested on: ACHN
CAKI-1 = tested on: CAKI-1
CCRF-CEM = tested on: CCRF-CEM
COLO 205 = tested on: COLO 205
DLD-1 = tested on: DLD-1
DMS-114 = tested on: DMS-114
DMS-273 = tested on: DMS-273
EKVX = tested on: EKVX
HCC 2998 = tested on: HCC 2998
HCT-15 = tested on: HCT-15
HL-60 = tested on: HL-60
HOP-18 = tested on: HOP-18
HOP-62 = tested on: HOP-62
HT-29 = tested on: HT-29
IGROV-1 = tested on: IGROV-1
K562 = tested on: K562
KM-20L2 = tested on: KM-20L2
KM12 = tested on: KM12
LOX IMVI = tested on: LOX IMVI
LXFL 529 = tested on: LXFL 529
M14 = tested on: M14
M19-MEL = tested on: M19-MEL
MOLT-4 = tested on: MOLT-4
Malme-3M = tested on: Malme-3M
NCI-H226 = tested on: NCI-H226
NCI-H23 = tested on: NCI-H23
NCI-H460 = tested on: NCI-H460
NCI-H522 = tested on: NCI-H522
OVCAR-3 = tested on: OVCAR-3
OVCAR-4 = tested on: OVCAR-4
OVCAR-5 = tested on: OVCAR-5
OVCAR-8 = tested on: OVCAR-8
RPMI-8226 = tested on: RPMI-8226
RXF 393 = tested on: RXF 393
RXF 631 = tested on: RXF 631
SF-268 = tested on: SF-268
SF-295 = tested on: SF-295
SF-539 = tested on: SF-539
SK-MEL-28 = tested on: SK-MEL-28
SK-MEL-2 = tested on: SK-MEL-2
SK-MEL-5 = tested on: SK-MEL-5
SK-OV-3 = tested on: SK-OV-3
SN12C = tested on: SN12C
SNB-19 = tested on: SNB-19
SNB-75 = tested on: SNB-75
SW-620 = tested on: SW-620
TK-10 = tested on: TK-10
UACC-257 = tested on: UACC-257
UACC-62 = tested on: UACC-62
UO-31 = tested on: UO-31
XF498 = tested on: XF498
A498 = tested on: A498
HCT-116 = tested on: HCT-116
HOP-92 = tested on: HOP-92
SNB-78 = tested on: SNB-78
SR = tested on: SR

O=[N+]([O-])c1ccc(C2=Nc3ccccc3[S+]([O-])C(c3ccccc3)C2)cc1 (stereo not drawn)
GI50 (786-0): 17.5 µM (inactive)
GI50 (A549): 27.9 µM (inactive)
GI50 (ACHN): 21.4 µM (inactive)
GI50 (CAKI-1): 18.8 µM (inactive)
GI50 (CCRF-CEM): 15.1 µM (inactive)
GI50 (COLO 205): 19.7 µM (inactive)
GI50 (DLD-1): 18.6 µM (inactive)
GI50 (DMS-114): 19.1 µM (inactive)
GI50 (DMS-273): 22.6 µM (inactive)
GI50 (EKVX): 22.4 µM (inactive)
GI50 (HCC 2998): 18.6 µM (inactive)
GI50 (HCT-15): 27 µM
GI50 (HL-60): 16.9 µM (inactive)
GI50 (HOP-18): 24.9 µM (inactive)
GI50 (HOP-62): 26.7 µM (inactive)
GI50 (HT-29): 19.1 µM (inactive)
GI50 (IGROV-1): 15.3 µM (inactive)
GI50 (K562): 10.9 µM (inactive)
GI50 (KM-20L2): 23.7 µM (inactive)
GI50 (KM12): 15.3 µM (inactive)
GI50 (LOX IMVI): 15.2 µM (inactive)
GI50 (LXFL 529): 13.5 µM (inactive)
GI50 (M14): 20.2 µM (inactive)
GI50 (M19-MEL): 14.6 µM (inactive)
GI50 (MOLT-4): 16.6 µM (inactive)
GI50 (Malme-3M): 44.8 µM (inactive)
GI50 (NCI-H226): 16.1 µM (inactive)
GI50 (NCI-H23): 18.2 µM (inactive)
GI50 (NCI-H460): 24.5 µM (inactive)
GI50 (NCI-H522): 16.7 µM (inactive)
GI50 (OVCAR-3): 17.5 µM (inactive)
GI50 (OVCAR-4): 20.1 µM (inactive)
GI50 (OVCAR-5): 25.8 µM (inactive)
GI50 (OVCAR-8): 32.4 µM (inactive)
GI50 (RPMI-8226): 5.56 µM (inactive)
GI50 (RXF 393): 14.9 µM (inactive)
GI50 (RXF 631): 17.1 µM (inactive)
GI50 (SF-268): 27.9 µM (inactive)
GI50 (SF-295): 31.3 µM (inactive)
GI50 (SF-539): 20.2 µM (inactive)
GI50 (SK-MEL-28): 20 µM (inactive)
GI50 (SK-MEL-2): 34.7 µM (inactive)
GI50 (SK-MEL-5): > 10 µM (inactive)
GI50 (SK-OV-3): 31.9 µM (inactive)
GI50 (SN12C): 23.6 µM (inactive)
GI50 (SNB-19): 20 µM (inactive)
GI50 (SNB-75): 19 µM (inactive)
GI50 (SW-620): 23.1 µM (inactive)
GI50 (TK-10): 27 µM (inactive)
GI50 (UACC-257): 22.1 µM (inactive)
GI50 (UACC-62): 13.6 µM (inactive)
GI50 (UO-31): 16.7 µM (inactive)
GI50 (XF498): 21.4 µM (inactive)

CCOc1ccc(/C=N\N2C(=O)c3ccccc3C2=O)cc1
GI50 (786-0): > 100 µM (inactive)
GI50 (A498): > 100 µM (inactive)
GI50 (A549): > 100 µM (inactive)
GI50 (ACHN): > 100 µM (inactive)
GI50 (CAKI-1): > 100 µM (inactive)
GI50 (CCRF-CEM): > 100 µM (inactive)
GI50 (DLD-1): > 100 µM (inactive)
GI50 (DMS-114): > 100 µM (inactive)
GI50 (DMS-273): > 100 µM (inactive)
GI50 (EKVX): > 100 µM (inactive)
GI50 (HCC 2998): > 100 µM (inactive)
GI50 (HCT-116): > 100 µM (inactive)
GI50 (HCT-15): > 100 µM
GI50 (HL-60): > 100 µM (inactive)
GI50 (HOP-18): > 100 µM (inactive)
GI50 (HOP-62): > 100 µM (inactive)
GI50 (HOP-92): > 100 µM (inactive)
GI50 (HT-29): > 100 µM (inactive)
GI50 (IGROV-1): > 100 µM (inactive)
GI50 (K562): > 100 µM (inactive)
GI50 (KM-20L2): > 100 µM (inactive)
GI50 (KM12): > 100 µM (inactive)
GI50 (LOX IMVI): > 100 µM (inactive)
GI50 (LXFL 529): > 100 µM (inactive)
GI50 (M14): > 100 µM (inactive)
GI50 (M19-MEL): > 100 µM (inactive)
GI50 (MOLT-4): > 100 µM (inactive)
GI50 (Malme-3M): > 100 µM (inactive)
GI50 (NCI-H226): > 100 µM (inactive)
GI50 (NCI-H23): > 100 µM (inactive)
GI50 (NCI-H460): > 100 µM (inactive)
GI50 (OVCAR-3): > 100 µM (inactive)
GI50 (OVCAR-4): > 100 µM (inactive)
GI50 (OVCAR-5): > 100 µM (inactive)
GI50 (OVCAR-8): > 100 µM (inactive)
GI50 (RPMI-8226): > 100 µM (inactive)
GI50 (RXF 393): > 100 µM (inactive)
GI50 (RXF 631): > 100 µM (inactive)
GI50 (SF-268): > 100 µM (inactive)
GI50 (SF-295): > 100 µM (inactive)
GI50 (SF-539): > 100 µM (inactive)
GI50 (SK-MEL-28): > 100 µM (inactive)
GI50 (SK-MEL-2): > 100 µM (inactive)
GI50 (SK-MEL-5): > 100 µM (inactive)
GI50 (SN12C): > 100 µM (inactive)
GI50 (SNB-19): > 100 µM (inactive)
GI50 (SNB-75): > 100 µM (inactive)
GI50 (SNB-78): > 100 µM (inactive)
GI50 (SR): > 100 µM (inactive)
GI50 (SW-620): > 100 µM (inactive)
GI50 (TK-10): > 100 µM (inactive)
GI50 (UACC-257): > 100 µM (inactive)
GI50 (UACC-62): > 100 µM (inactive)
GI50 (UO-31): > 100 µM (inactive)
GI50 (XF498): > 100 µM (inactive)
